The source of these data is patent US20130252930A1 (BIOMARIN PHARMACEUTICAL INC., priority 2010, published 2013).

Series [1] has as its target T1, CYP17 (human testicular microsome) (Homo sapiens, UniProt P05093).
T1 construct: using microsomal fraction from human testis (Celsis Cat #S00110) as the enzyme source; tissue Celsis S00110; host or cells: human testis microsomal fraction
T1 sequence (P05093 1-508): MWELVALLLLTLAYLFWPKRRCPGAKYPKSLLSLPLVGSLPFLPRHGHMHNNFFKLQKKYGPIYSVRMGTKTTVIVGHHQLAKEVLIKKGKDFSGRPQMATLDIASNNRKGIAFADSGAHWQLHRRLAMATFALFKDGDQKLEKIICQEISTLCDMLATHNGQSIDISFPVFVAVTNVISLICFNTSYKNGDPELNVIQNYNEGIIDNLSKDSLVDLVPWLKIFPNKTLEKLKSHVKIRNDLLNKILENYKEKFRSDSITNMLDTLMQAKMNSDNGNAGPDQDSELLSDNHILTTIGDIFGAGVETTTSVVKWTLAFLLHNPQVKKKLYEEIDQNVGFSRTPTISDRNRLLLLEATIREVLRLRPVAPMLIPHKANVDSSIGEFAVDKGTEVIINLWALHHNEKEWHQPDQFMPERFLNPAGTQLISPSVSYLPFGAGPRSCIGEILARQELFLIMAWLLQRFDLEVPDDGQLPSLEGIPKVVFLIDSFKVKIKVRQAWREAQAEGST
Kind of series: CYP17 enzymatic assay (IC50) (Biological Example 4). It is filed as biochemical. The settings on record: human testicular microsome, DHEA by ELISA; read-out: Biological Example No. 4: CYP17 enzymatic assay IC50.

Series [2] addresses T1, CYP17 (human testicular microsome). The series can be described thus: CYP17 enzymatic assay (% inhibition at 10 nM), version 1 (Biological Example 5). It is filed as biochemical. As to conditions: 10 nM compound, DHEA by ELISA, read-out: Biological Example No. 5: CYP17 percent inhibition at 10 nM (version 1). In general terms: In an ELISA, binding on a coated surface is turned into a signal by an enzyme label.

Series [3] is described as follows: Rat liver microsome stability assay (Biological Example 8a). The settings on record: liver microsomes, pH 7.4. In general terms: Liver microsomes are a subcellular fraction often used to study metabolism.
Experimental: Each test compound (1.5 μM, 30 μL) was incubated with rat (BD Gentest, Cat No. 452501) or human (BD Gentest, Cat No. 452161) liver microsomes (0.75 mg/mL, 0.1 M potassium phosphate buffer, 1.0 mM EDTA, pH 7.4) in 96 well plates. The reaction was started with addition of excess NADPH (5 mg/mL, 15 μL in 0.1 M potassium phosphate buffer, 1.0 mM EDTA, pH 7.4), the total volume is 45 μL (compound final concentration was 1 μM). The incubations were terminated at time zero and at 5, 15, 30, and 60 minutes by addition of 135 μL/excess ACN containing internal standard (1S). After quenching, the reaction mixtures was centrifuged (Eppendorf Centrifuge 5810R) at 3220×g for 10 min (4° C.). 50 μL of the supernatant was transferred from each well into a 96-well sample plate containing 50 μL of ultra-pure water (Millipore) for LC-MS/MS analysis. The half-life T1/2=0.693/K (K is the rate constant from a plot of log [concentration] vs. incubation time) was calculated.

As usually defined, the IC50 is the midpoint of a concentration-inhibition curve. A word on the inhibition: it is the relative decrease from the control value, in per cent. As usually defined, the half-life is how long it takes for the measured level to halve. A higher half-life goes with slow decline.

Consider `C[C@]12CCCOC[C@H]1CC[C@@H]1[C@@H]2CC[C@]2(C)C(c3cccnc3)=CC[C@@H]12` [Compound 121, 3-((5aR,5bS,7aS,10aS,10bR,12aS)-5a,7a-dimethyl-3,4,5,5a,5b,6,7,7a,10,10a,10b,11,12,12a-tetradecahydro-1H-cyclopenta[5,6]naphtho[2,1-c]oxepin-8-yl)pyridine], for which, in series [1], the IC50 was less than 11 nM. Moreover, in series [2], the inhibition at 0.01 µM is greater than 80%. Besides, the half-life at 1 μM in series [3] lay in the range of 1 to 10 min.
On to `CN1C(=O)COC[C@@]2(C)C1CC[C@@H]1[C@@H]2CC[C@]2(C)C(c3cccnc3)=CC[C@@H]12` (stereo partly drawn) [Compound 98, (5aR,5bS,7aS,10aS,10bS)-1,5a,7a-trimethyl-8-(pyridin-3-yl)-5,5a,5b,6,7,7a,10,10a,10b,11,12,12a-dodecahydro-1H-cyclopenta[5,6]naphtho[2,1-e][1,4]oxazepin-2(3H)-one], for which the IC50 in series [1] is less than 11 nM. In series [2], the inhibition at 0.01 µM was 50 to 80%. In addition, in series [3], the half-life at 1 μM lay in the range of 1 to 10 min.
For the compound `Cc1cncc(C2=CC[C@H]3[C@@H]4CC(=O)C5CCCC[C@]5(C)[C@H]4CC[C@]23C)c1` (stereo partly drawn) [Compound 71, (10R,13S)-10,13-dimethyl-17-(5-methylpyridin-3-yl)-2,3,4,5,7,8,9,11,12,13,14,15-dodecahydro-1H-cyclopenta[a]phenanthren-6(10H)-one], the IC50 in series [1] was less than 11 nM. Also, the half-life at 1 μM in series [3] lay within 1 to 10 min.
For `Cc1cn(C2=CC[C@H]3[C@@H]4CCC5=CC(=O)NCC[C@]5(C)[C@H]4CC[C@]23C)cn1` [Compound 154], the IC50 in series [1] is less than 11 nM. Besides, the inhibition at 0.01 µM in series [2] lay in the range of 50 to 80%. In series [3], this compound returned a half-life at 1 μM of 10 to 60 min.
On the same counts, the results for `COc1cncc(C2=CC[C@H]3[C@@H]4CC[C@H]5CCOCC[C@]5(C)[C@H]4CC[C@]23C)c1` [Compound 122, 3-((5aS,5bS,7aS,10aS,10bR,12aS)-5a,7a-dimethyl-2,4,5,5a,5b,6,7,7a,10,10a,10b,11,12,12a-tetradecahydro-1H-cyclopenta[5,6]naphtho[1,2-d]oxepin-8-yl)-5-methoxypyridine] are less than 11 nM, 50 to 80% and 1 to 10 min.
For `CCc1cncc(C2=CC[C@H]3[C@@H]4CCN5C(=O)CCCC[C@]5(C)[C@H]4CC[C@]23C)c1` [Compound 41, (11aR,13aS)-1-(5-ethylpyridin-3-yl)-11a,13a-dimethyl-3b,4,5,8,9,10,11,11a,11b,12,13,13a-dodecahydro-3H-azepino[2,1-a]cyclopenta[f]isoquinolin-7(3aH)-one], in that order: less than 11 nM, greater than 80% and 1 to 10 min.
As to `CCc1cncc(C2=CC[C@H]3[C@@H]4CCN5CCCCC[C@]5(C)[C@H]4CC[C@]23C)c1` [Compound 48, (11aR,13aS)-1-(5-ethylpyridin-3-yl)-11a,13a-dimethyl-3a,3b,4,5,7,8,9,10,11,11a,11b,12,13,13a-tetradecahydro-3H-azepino[2,1-a]cyclopenta[f]isoquinoline], the inhibition at 0.01 µM in series [2] fell in the range of 1 to 50%. The same compound had a half-life at 1 μM in series [3] of 1 to 10 min.
For `Cc1cncc(C2=CC[C@H]3[C@@H]4CC[C@H]5COC(=O)CC[C@]5(C)[C@H]4CC[C@]23C)c1` [Compound 119, (5aR,5bS,7aS,10aS,10bR,12aR)-5a,7a-dimethyl-8-(5-methylpyridin-3-yl)-5,5a,5b,6,7,7a,10,10a,10b,11,12,12a-dodecahydro-1H-cyclopenta[5,6]naphtho[2,1-c]oxepin-3(4H)-one], in that order: 1 to 50% and 1 to 10 min.
Take `CCOc1cncc(C2=CC[C@H]3[C@@H]4CC[C@H]5COCCC[C@]5(C)[C@H]4CC[C@]23C)c1` [Compound 125, 3-((5aR,5bS,7aS,10aS,10bR,12aR)-5a,7a-dimethyl-3,4,5,5a,5b,6,7,7a,10,10a,10b,11,12,12a-tetradecahydro-1H-cyclopenta[5,6]naphtho[2,1-c]oxepin-8-yl)-5-ethoxypyridine]: the IC50 in series [1] was less than 11 nM. For the same compound, the inhibition at 0.01 µM in series [2] was in the range of 50 to 80%. The compound further displayed a half-life at 1 μM in series [3] of 1 to 10 min.
For `CCCOc1cncc(C2=CC[C@H]3[C@@H]4CCN5CCCCC[C@]5(C)[C@H]4CC[C@]23C)c1` [Compound 46, (11aR,13aS)-11a,13a-dimethyl-1-(5-propoxypyridin-3-yl)-3a,3b,4,5,7,8,9,10,11,11a,11b,12,13,13a-tetradecahydro-3H-azepino[2,1-a]cyclopenta[f]isoquinoline], in series [2], the inhibition at 0.01 µM was in the range of 50 to 80%. This compound also showed a half-life at 1 μM in series [3] of 10 to 60 min.
`COc1cncc(C2=CC[C@H]3[C@@H]4CCN5C(=O)CCCC[C@]5(C)[C@H]4CC[C@]23C)c1` [Compound 40, (11aR,13aS)-1-(5-methoxypyridin-3-yl)-11a,13a-dimethyl-3b,4,5,8,9,10,11,11a,11b,12,13,13a-dodecahydro-3H-azepino[2,1-a]cyclopenta[f]isoquinolin-7(3aH)-one]: the IC50 in series [1] was less than 11 nM. For the same compound, the inhibition at 0.01 µM in series [2] is greater than 80%. Besides, the half-life at 1 μM in series [3] is 1 to 10 min.
On the same counts, the results for `Cc1cncc(C2=CC[C@H]3[C@@H]4CC[C@H]5COCCC[C@]5(C)[C@H]4CC[C@]23C)c1` [Compound 127, 3-((5aR,5bS,7aS,10aS,10bR,12aR)-5a,7a-dimethyl-3,4,5,5a,5b,6,7,7a,10,10a,10b,11,12,12a-tetradecahydro-1H-cyclopenta[5,6]naphtho[2,1-c]oxepin-8-yl)-5-methylpyridine] are less than 11 nM, 50 to 80% and 1 to 10 min.
Consider `Cc1cncc(C2=CC[C@H]3[C@@H]4CC(O)C5CCCC[C@]5(C)[C@H]4CC[C@]23C)c1` (stereo partly drawn) [Compound 70, (10R,13S)-10,13-dimethyl-17-(5-methylpyridin-3-yl)-2,3,4,5,6,7,8,9,10,11,12,13,14,15-tetradecahydro-1H-cyclopenta[a]phenanthren-6-ol], for which the IC50 in series [1] was less than 11 nM. This compound showed a half-life at 1 μM in series [3] of 1 to 10 min.
Take `C[C@]12CCOCC[C@@H]1CC[C@@H]1[C@@H]2CC[C@]2(C)C(c3cccnc3)=CC[C@@H]12` [Compound 120, 3-((5aS,5bS,7aS,10aS,10bR,12aS)-5a,7a-dimethyl-2,4,5,5a,5b,6,7,7a,10,10a,10b,11,12,12a-tetradecahydro-1H-cyclopenta[5,6]naphtho[1,2-d]oxepin-8-yl)pyridine]: in series [1], the IC50 was less than 11 nM. Besides, in series [2], the inhibition at 0.01 µM was greater than 80%. Further, the half-life at 1 μM in series [3] lay in the range of 1 to 10 min.
With `C[C@]12CCCCC[C@@H]1CC[C@@H]1[C@@H]2CC[C@]2(C)C(n3ccnc3)=CC[C@@H]12` [Compound 97, 1-((3aS,3bR,5aR,10aS,10bS,12aS)-10a,12a-dimethyl-3,3a,3b,4,5,5a,6,7,8,9,10,10a,10b,11,12,12a-hexadecahydrocyclohepta[a]cyclopenta[f]naphthalen-1-yl)-1H-imidazole], the IC50 in series [1] was less than 11 nM. For the same compound, the inhibition at 0.01 µM in series [2] was in the range of 50 to 80%. For the same compound, in series [3], the half-life at 1 μM was 10 to 60 min.
On the same counts, the results for `COc1cncc(C2=CC[C@H]3[C@@H]4CC[C@H]5COCCC[C@]5(C)[C@H]4CC[C@]23C)c1` [Compound 123, 3-((5aR,5bS,7aS,10aS,10bR,12aR)-5a,7a-dimethyl-3,4,5,5a,5b,6,7,7a,10,10a,10b,11,12,12a-tetradecahydro-1H-cyclopenta[5,6]naphtho[2,1-c]oxepin-8-yl)-5-methoxypyridine] are less than 11 nM, 50 to 80% and 1 to 10 min.
Take `COc1cncc(C2=CC[C@H]3[C@@H]4CC(=O)C5CCCC[C@]5(C)[C@H]4CC[C@]23C)c1` (stereo partly drawn) [Compound 72, (10R,13S)-17-(5-methoxypyridin-3-yl)-10,13-dimethyl-2,3,4,5,7,8,9,11,12,13,14,15-dodecahydro-1H-cyclopenta[a]phenanthren-6(10H)-one]: the IC50 in series [1] was less than 11 nM. The half-life at 1 μM in series [3] lay in the range of 1 to 10 min.
As for `Cc1cncc(C2=CC[C@H]3[C@@H]4CCN5C(=O)CCCC[C@]5(C)[C@H]4CC[C@]23C)c1` [Compound 39, (11aR,13aS)-11a,13a-dimethyl-1-(5-methylpyridin-3-yl)-3b,4,5,8,9,10,11,11a,11b,12,13,13a-dodecahydro-3H-azepino[2,1-a]cyclopenta[f]isoquinolin-7(3aH)-one], the IC50 in series [1] was less than 11 nM. Moreover, the inhibition at 0.01 µM in series [2] was in the range of 50 to 80%. The compound also came in with a half-life at 1 μM in series [3] of 1 to 10 min.
Turning to `C[C@]12CCNC(=O)C=C1CC[C@@H]1[C@@H]2CC[C@]2(C)C(n3ncnn3)=CC[C@@H]12` [Compound 63], the inhibition at 0.01 µM in series [2] was greater than 80%. Besides, in series [3], the half-life at 1 μM fell in the range of 1 to 10 min.
